Like-named read-outs stand apart in the source and are kept apart here.
Legend:
[1] = target: T1, unphosphorylated c-KIT kinase (uKIT, Seq. ID no. 2) (Homo sapiens, UniProt P10721); assay: uKit kinase assay (ADP production coupled to pyruvate kinase/lactate dehydrogenase); type: biochemical; conditions: read-out: uKIT
T1 construct: uKit with N-terminal GST fusion used for screening
Description: In this assay, the oxidation of NADH (thus the decrease at A340 nm) was continuously monitored spectrophometrically. […] The inhibition reaction was started by mixing serial diluted test compound with the above reaction mixture. The absorption at 340 nm was monitored continuously for 4 hours at 30° C. on Synergy 2 plate reader (BioTech).

[2] = target: T2, unphosphorylated PDGFRβ kinase (uPDGFRβ, Seq. ID No. 3) (Homo sapiens, UniProt P09619); assay: uPDGFRβ kinase assay (ADP production coupled to pyruvate kinase/lactate dehydrogenase); type: biochemical; conditions: enzymatic assay, ATP 500 μM
T2 construct: purchased DeCode
Description: Unphosphorylated […]β) Kinase (Seq. ID No. 3) Assay Activity of unphosphorylated PDGFRβ kinase ([…] No. 3) was determined by following the production of ADP from the kinase reaction with ATP and poly E4Y as substrates through coupling with the pyruvate kinase/lactate dehydrogenase system (e.g., Schindler et al. Science (2000) 289: 1938-1942). In this assay, the oxidation of NADH (thus the decrease at A340 nm) was continuously monitored spectrophometrically. The reaction mixture (100 μL) contained PDGFRβ (DeCode, 15.7 nM), polyE4Y (2.5 mg/mL), MgCl2 (10 mM), pyruvate kinase (4 units), lactate dehydrogenase (0.7 units), phosphoenol pyruvate (1 mM) and NADH (0.28 mM) and ATP (500 μM) in a 90 mM Tris buffer containing 0.2% octyl-glucoside and 1% DMSO, at pH 7.5. The inhibition reaction was started by mixing serial diluted test compound with the above reaction mixture. The absorption at 340 nm was monitored continuously for 4 h at 30° C. on a Polarstar Optima or Synergy 2 plate reader. The reaction rate was calculated using the 1.5 to 2.5 h time frame. Percent inhibition was obtained by comparison of reaction rate with that of a control (i.e. with no test compound). IC50 values were calculated from a series of percent inhibition values determined at a range of inhibitor concentrations using software routines as implemented in the GraphPad Prism software package.

[3] = system: osteoclast precursors; assay: Osteoclast tartrate-resistant acid phosphatase assay; type: cell-based; conditions: tartrate-resistant acid phosphatase activity, RANKL and M-CSF, 7-14 days
Description: Osteoclast Tartrate-Resistant Acid Phosphatase Assay
A serial dilution of test compound was dispensed into a 384-well black clear bottom plate (Nalge Nunc International, Rochester, N.Y.). Compound was diluted by the addition of DMEM media supplemented with 10% characterized fetal bovine serum (Invitrogen, Carlsbad, Calif.). Diluted compound was transferred to a 384-well black clear bottom plate. Two-thousand five hundred osteoclast precursors (Lonza, Walkersville, Md.) were added per well in growth media containing Receptor Activator of Nuclear Factor Kappa-beta ligand (RANKL) and M-CSF (R&D Systems, Minneapolis, Minn.). Plates were incubated for 7-14 days at 37 degrees Celsius, 5% CO2, and 95% humidity to allow differentiation of osteoclast precursors. At the end of the incubation period, 10 μL of supernatant from each well was transferred to a clear 384-well plate. Tartrate-resistant acid phosphatase activity in the supernatant samples was determined using an acid phosphatase assay kit (Sigma, St. Louis, Mo.). Absorbance was measured at 550 nm using a plate reader. Data was analyzed using Prism software (Graphpad, San Diego, Calif.) to calculate IC50 values.

T2 sequence (P09619 557-1106): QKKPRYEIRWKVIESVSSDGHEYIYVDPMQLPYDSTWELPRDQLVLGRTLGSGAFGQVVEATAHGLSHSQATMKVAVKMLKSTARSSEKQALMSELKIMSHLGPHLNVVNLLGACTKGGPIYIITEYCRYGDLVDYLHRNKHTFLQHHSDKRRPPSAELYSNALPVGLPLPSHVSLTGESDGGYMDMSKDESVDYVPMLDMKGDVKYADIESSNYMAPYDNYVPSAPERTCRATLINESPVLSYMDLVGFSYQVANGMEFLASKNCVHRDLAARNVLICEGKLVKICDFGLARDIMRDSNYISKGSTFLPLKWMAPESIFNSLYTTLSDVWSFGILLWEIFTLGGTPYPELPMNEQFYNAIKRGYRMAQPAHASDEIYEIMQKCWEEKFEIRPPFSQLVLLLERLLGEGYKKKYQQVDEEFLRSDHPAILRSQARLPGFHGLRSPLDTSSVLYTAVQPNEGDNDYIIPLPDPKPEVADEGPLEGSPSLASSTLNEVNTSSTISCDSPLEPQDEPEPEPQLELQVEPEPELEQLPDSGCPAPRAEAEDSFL
T1 sequence (P10721 with tags, fused parts or gaps): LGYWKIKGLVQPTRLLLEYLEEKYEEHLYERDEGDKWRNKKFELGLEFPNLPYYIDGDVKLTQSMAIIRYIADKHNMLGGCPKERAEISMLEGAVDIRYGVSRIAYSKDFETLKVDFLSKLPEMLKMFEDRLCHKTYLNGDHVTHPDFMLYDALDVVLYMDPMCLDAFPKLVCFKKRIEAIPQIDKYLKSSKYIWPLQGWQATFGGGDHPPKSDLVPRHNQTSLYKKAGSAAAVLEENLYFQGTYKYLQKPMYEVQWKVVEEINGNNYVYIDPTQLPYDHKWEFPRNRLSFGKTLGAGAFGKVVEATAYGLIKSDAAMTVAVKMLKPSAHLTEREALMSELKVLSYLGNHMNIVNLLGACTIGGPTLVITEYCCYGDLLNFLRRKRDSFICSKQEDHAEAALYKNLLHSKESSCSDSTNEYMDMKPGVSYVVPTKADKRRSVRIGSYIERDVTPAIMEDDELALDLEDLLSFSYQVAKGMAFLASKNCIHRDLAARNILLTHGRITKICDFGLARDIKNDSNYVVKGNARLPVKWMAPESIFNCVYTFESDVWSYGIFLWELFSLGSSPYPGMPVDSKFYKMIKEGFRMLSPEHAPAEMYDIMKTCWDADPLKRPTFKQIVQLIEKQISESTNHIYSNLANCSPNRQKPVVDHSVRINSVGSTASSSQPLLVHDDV

Structure (SMILES)	IC50 ([1]; enzymatic assay, ATP 2000 μM)	IC50 [2]	IC50 [3]	IC50 [1]
CNC(=O)c1cc(Oc2ccc(-c3cnc(NC(C)C)[nH]c3=O)nc2)ccn1 [Example 11, 4-((6-(2-(isopropylamino)-6-oxo-1,6-dihydropyrimidin-5-yl)pyridin-3-yl)oxy)-N-methylpicolinamide]	> 1000 nM	> 1000 nM	10 to 100 nM	–
Cc1cc(-c2cnc(N3CCCC3)[nH]c2=O)ncc1Oc1ccnc(-c2cnn(C)c2)c1 [Example 20, 5-(4-methyl-5-((2-(1-methyl-1H-pyrazol-4-yl)pyridin-4-yl)oxy)pyridin-2-yl)-2-(pyrrolidin-1-yl)pyrimidin-4(3H)-one]	100 to 1000 nM	100 to 1000 nM	< 10 nM	–
CCNc1ncc(-c2ccc(Oc3ccnc(-n4cnc(C)c4)c3)c(C)n2)c(=O)[nH]1 [Example 5, 2-(ethylamino)-5-(6-methyl-5-((2-(4-methyl-1H-imidazol-1-yl)pyridin-4-yl)oxy)pyridin-2-yl)pyrimidin-4(3H)-one]	> 1000 nM	> 1000 nM	100 to 1000 nM	–
Cc1nc(-c2cnc(N(C)C)[nH]c2=O)ccc1Oc1ccnc(-c2cnn(C)c2)c1 [Example 2, 2-(dimethylamino)-5-(6-methyl-5-((2-(1-methyl-1H-pyrazol-4-yl)pyridin-4-yl)oxy)pyridin-2-yl)pyrimidin-4(3H)-one]	> 1000 nM	> 1000 nM	10 to 100 nM	–
CCNc1ncc(-c2ccc(Oc3ccnc(-c4cnn(C)c4)c3)cn2)c(=O)[nH]1 [Example 8, 2-(ethylamino)-5-(5-((2-(1-methyl-1H-pyrazol-4-yl)pyridin-4-yl)oxy)pyridin-2-yl)pyrimidin-4(3H)-one]	100 to 1000 nM	> 1000 nM	100 to 1000 nM	–
CC(=O)Nc1cc(Oc2ccc(-c3cnc(NC(C)C)[nH]c3=O)nc2C)ccn1 [Example 19, N-(4-((6-(2-(isopropylamino)-6-oxo-1,6-dihydropyrimidin-5-yl)-2-methylpyridin-3-yl)oxy)pyridin-2-yl)acetamide]	100 to 1000 nM	100 to 1000 nM	10 to 100 nM	–
CCNc1ncc(-c2ccc(Oc3ccnc(-c4cnn(C)c4)c3)c(C)n2)c(=O)[nH]1 [Example 1, 2-(ethylamino)-5-(6-methyl-5-((2-(1-methyl-1H-pyrazol-4-yl)pyridin-4-yl)oxy)pyridin-2-yl)pyrimidin-4(3H)-one]	> 1000 nM	> 1000 nM	10 to 100 nM	–
Cc1nc(-c2cnc(N3CCOCC3)[nH]c2=O)ccc1Oc1ccnc(-c2cnn(C)c2)c1 [Example 12, 5-(6-methyl-5-((2-(1-methyl-1H-pyrazol-4-yl)pyridin-4-yl)oxy)pyridin-2-yl)-2-morpholinopyrimidin-4(3H)-one]	> 1000 nM	> 1000 nM	10 to 100 nM	–
Cc1nc(-c2cnc(NC3CCCC3)[nH]c2=O)ccc1Oc1ccnc(-c2cnn(C)c2)c1 [Example 15, 2-(cyclopentylamino)-5-(6-methyl-5-((2-(1-methyl-1H-pyrazol-4-yl)pyridin-4-yl)oxy)pyridin-2-yl)pyrimidin-4(3H)-one]	100 to 1000 nM	100 to 1000 nM	< 10 nM	–
Cc1nc(-c2cnc(N3CCCC3)[nH]c2=O)ccc1Oc1ccnc(-c2cnn(C)c2)c1 [Example 9, 5-(6-methyl-5-((2-(1-methyl-1H-pyrazol-4-yl)pyridin-4-yl)oxy)pyridin-2-yl)-2-(pyrrolidin-1-yl)pyrimidin-4(3H)-one]	–	> 1000 nM	10 to 100 nM	> 1000 nM
Cc1nc(-c2cnc(NC3CCOCC3)[nH]c2=O)ccc1Oc1ccnc(-c2cnn(C)c2)c1 [Example 27, 5-(6-methyl-5-((2-(1-methyl-1H-pyrazol-4-yl)pyridin-4-yl)oxy)pyridin-2-yl)-2-((tetrahydro-2H-pyran-4-yl)amino)pyrimidin-4(3H)-one]	> 1000 nM	> 1000 nM	10 to 100 nM	–
Cc1nc(-c2cnc(N3CCCCC3)[nH]c2=O)ccc1Oc1ccnc(-c2cnn(C)c2)c1 [Example 13, 5-(6-methyl-5-((2-(1-methyl-1H-pyrazol-4-yl)pyridin-4-yl)oxy)pyridin-2-yl)-2-(piperidin-1-yl)pyrimidin-4(3H)-one]	> 1000 nM	> 1000 nM	10 to 100 nM	–

Reference: patent publication US9181223B2, “2-aminopyrimidin-6-ones and analogs exhibiting anti-cancer and anti-proliferative activities” (Deciphera Pharmaceuticals, LLC, priority 2013, dated 2015)
